According to patent US11479587B2, “Cationic intrinsically disordered antimicrobial peptides” (priority 2016, dated 2022):
“And” between values parts separate entries of the source, which are not always exact repeats. Equal entries are not always repeated. Where two headings read alike, the source gives them in different places. Residues, ends and D or L forms follow the SMILES beside them.

Columns and labels:
[1] = test system: methicillin-resistant S. aureus strain (ATCC 43300); format: cell-based, Staphylococcus aureus; details: ATCC 43300, 18 h
Method: Furthermore, sensitivity of a methicillin-resistant S. aureus strain (ATCC 43300) was investigated for palmitoylated CIDAMPs in a microtiter plate screening model, with incubation in Mueller-Hinton medium at 37° C. for 18 h using resazurin as a marker for cell viability.
A sample of each culture was then diluted 40-fold in fresh broth and incubated at 37° C. for 1.5-3 h. […] All the plates were covered and incubated at 37° C. for 18 h.
(§1) Inhibition of bacterial growth was determined using resazurin as a marker for cell viability. Resazurin was added to each well, at 0.001% final concentration, and plates incubated at 37° C. for 2 h. Fluorescence intensity was measured, using F (top read), ex 560/10 nm, em 590/10 nm, using a Tecan M1000 Pro monochromator plate reader.

P. aeruginosa ATCC 27853 = format: cell-based, Pseudomonas aeruginosa; details: ATCC 27853, 2 h
Method: as §1

[2] = Cytotoxicity (resazurin) assay
Procedure, shortened: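 CC50 values were derived by fitting concentration-dependent percentage cytotoxicity to a dose–response function. The read-out was resazurin fluorescence (ex 560, em 590 nm; 100 μM, 3 h) after 20 h compound treatment of HEK293 cells at 37 °C in DMEM with 10% FBS.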

Hemolysis assay = format: cell-based
Procedure, shortened: (§2)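 Washed EDTA-blood erythrocytes in 5% PBS, pH 7.4, were rotated 1 h at 37° C with peptides at 0, 3, 10, 30, 60 μm. Hemoglobin release read at 540 nm as % of 0.1% Triton X-100 hemolysis; CC50 from dose-response curve of triplicates.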

A. baumannii ATCC 19606 = format: cell-based, Acinetobacter baumannii; details: ATCC 19606, 2 h
Method: as §1

E. coli ATCC 25922 = format: cell-based, Escherichia coli; details: ATCC 25922, 2 h
Method: as §1

erythrocytes = assay: Hemolysis assay; format: cell-based
Procedure, shortened: as §2

S. aureus ATCC 6538 = assay: CFU-assay, S. aureus-cidal activity; format: cell-based, Staphylococcus aureus; details: pH 5.5, 1% TSB
Procedure, shortened: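 Bactericidal CFU-assay in nutrient-deficient 10 mM sodium phosphate buffer pH 5.5 with 0.25% glucose, counting surviving colonies across twofold peptide dilutions from 300 μg/ml to 19 ng/ml. Output is minimal bactericidal concentration (e.g. MBC90, MBC100); some peptides also tested at pH 7.0.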

[3] = test system: Escherichia coli ATCC11775; assay: CFU-assay, antimicrobial activity spectrum; format: cell-based; details: pH 5.5, 1% TSB
[4] = test system: Burkholderia cepacia ATCC 25416; assay: CFU-assay, Burkholderia cepacia-cidal activity; format: cell-based; details: pH 5.5, 0.25% glucose
P. aeruginosa ATCC 10145 = assay: CFU-assay, P. aeruginosa-cidal activity; format: cell-based, Pseudomonas aeruginosa
[5] = test system: Candida albicans ATCC 24433; assay: CFU-assay, Candida albicans-cidal activity; format: cell-based
Method: Thus, within the present invention, the antimicrobial activity is generally measured in nutrient deficient 10 mM sodium phosphate buffer pH 5.5, containing 0.25% glucose, using the CFU-assay according to Steinberg and Lehrer, 1997 (supra), unless otherwise indicated. The CFU-assay allows determination of the minimal bactericidal concentration (MBC, e.g., MBC90 and MBC100; i.e. the concentration of compound required to achieve a specified reduction in bacterial cell number (microbial death or killing)). […]
HR 1-17 affects C. albicans ATCC 24433 with highest activity at pH 5.5 in the absence of TSB in the medium (see Tables 12, 24). […] Furthermore, the substitution of any of the Arg residues by Gly leads to a dramatic reduction or loss of candidacidal activity (see Table 24).

CCCCCCCCCCCCCCCC(=O)NCC(=O)N[C@@H](CCCNC(=N)N)C(=O)N[C@@H](CCCNC(=N)N)C(=O)NCC(=O)NCC(=O)N[C@@H](CCCNC(=N)N)C(=O)NCC(=O)NCC(=O)N[C@@H](CCCNC(=N)N)C(=O)NCC(=O)N[C@@H](CCCNC(=N)N)C(=O)O [Pal-GR11] (HELM PEPTIDE1{[CCCCCCCCCCCCCCCC(=O)[*:2]].G.R.R.G.G.R.G.G.R.G.R}$$$$V2.0)
MIC, S. aureus ATCC 43300 [1]: ≥4 µg/mL | MIC, P. aeruginosa ATCC 27853 (P. aeruginosa ATCC 27853): ≥16 µg/mL | CC50 [2]: > 32 µg/mL | HC50 (Hemolysis assay): 90 µg/mL | MIC, A. baumannii ATCC 19606 (A. baumannii ATCC 19606): ≥8 µg/mL | MIC, C. neoformans ATCC 208821 (C. neoformans): ≥4 µg/mL | MIC, E. coli ATCC 25922 (E. coli ATCC 25922): ≥8 µg/mL | MIC, C. albicans ATCC 90028 (C. albicans ATCC 928; ATCC 928): ≥4 µg/mL

CCCCCCCCCCCCCCCC(=O)NCC(=O)N[C@@H](CCCNC(=N)N)C(=O)N[C@@H](CCCNC(=N)N)C(=O)NCC(=O)N[C@@H](CO)C(=O)NCC(=O)N[C@@H](CC(C)C)C(=O)NCC(=O)N[C@@H](CCCNC(=N)N)C(=O)N[C@@H](CO)C(=O)N[C@@H](CO)C(=O)N[C@@H](CO)C(=O)N[C@@H](CCCNC(=N)N)C(=O)NCC(=O)N[C@@H](CCC(N)=O)C(=O)N[C@@H](CCCNC(=N)N)C(=O)NCC(=O)N[C@@H](CO)C(=O)NCC(=O)N[C@@H](CO)C(=O)NCC(=O)N[C@@H](CCCNC(=N)N)C(=O)O [Pal-HR 1-18 HR] (HELM PEPTIDE1{[CCCCCCCCCCCCCCCC(=O)[*:2]].G.R.R.G.S.G.L.G.R.S.S.S.R.G.Q.R.G.S.G.S.G.R}$$$$V2.0)
MIC, S. aureus ATCC 43300 [1]: ≥8 µg/mL | MIC, P. aeruginosa ATCC 27853 (P. aeruginosa ATCC 27853): ≥16 µg/mL | CC50 [2]: > 32 µg/mL and > 13.3 µM | hemolytic activity (in words) (erythrocytes): low hemolytic activity | HC50 (Hemolysis assay): > 300 µg/mL | HC50 at 1 h (Hemolysis assay; human, washed erythrocytes from EDTA-blood, pH 7.4): > 119 µM | MIC, A. baumannii ATCC 19606 (A. baumannii ATCC 19606): ≥1 µg/mL | MIC, C. neoformans ATCC 208821 (C. neoformans): ≥1 µg/mL | MIC, E. coli ATCC 25922 (E. coli ATCC 25922): ≥4 µg/mL | MIC (C. albicans ATCC 928; ATCC 928, 18 h, pH 7.4): 1 to 32 µg/mL

GRHGSGLGHSSSHGQHGSGSGRSSSRGPY (Peptide derived from human hornerin (HR 1-17))
MBC90 (S. aureus ATCC 6538): >300 µg/mL | MBC100 (S. aureus ATCC 6538): >300 µg/mL | MBC90 [3]: >300 µg/mL | MBC100 [3]: >300 µg/mL | MBC90 [4]: >300 µg/mL | MBC100 [4]: >300 µg/mL | MBC90 (P. aeruginosa ATCC 10145; pH 5.0, 0.25% glucose): 0.038 µg/mL and 0.0375 µg/mL | MBC100 (P. aeruginosa ATCC 10145; pH 5.0, 0.25% glucose): 0.15 µg/mL | MBC100 (P. aeruginosa ATCC 10145; pH 5.5, 0.25% glucose): 0.15 µg/mL and 0.3 µg/mL | MBC90 (P. aeruginosa ATCC 10145; pH 5.5, 1% TSB): 0.59 µg/mL | MBC100 (P. aeruginosa ATCC 10145; pH 5.5, 1% TSB): 18.75 µg/mL | MBC90 [5]: 0.56 µM | MBC90 ([5]; pH 5.5, 0.25% glucose): 1.18 µg/mL | MBC100 ([5]; pH 5.5, 0.25% glucose): 9.38 µg/mL | MBC100 ([5]; pH 5.5, 1% TSB): 150 µg/mL and >300 µg/mL | MBC90 ([5]; pH 7.2, 1.% TSB): >300 µg/mL | MBC100 ([5]; pH 7.2, 1.% TSB): >300 µg/mL
